The values that follow come from patent US7183302B2, “Iminothiazolidinones as inhibitors of HCV replication” (priority 2002, dated 2007).

Like-named read-outs stand apart in the source and are kept apart here.

Data set [1] has as its system HCV 1b-377-neo replicon cells (Huh-7). Briefly: Alamar blue conversion (cellular toxicity, CC50), wild-type replicon cells. The format is cell-based.
The subject of data set [2] is wild-type Blast/Luciferase HCV replicon. The format is cell-based, HCV 1b.
The subject of data set [3] is Y2065C Blast/Luciferase HCV replicon. The format is cell-based, HCV 1b.
The test system of data set [4] is Y > H replicon cells (Huh-7). Briefly: Alamar blue CC50 on Y > H replicon cells.
The test system of data set [5] is Compound 1-r replicon cells (HCV 377-neo). The data set is described as follows: FRET assay on selected Compound 1-r replicon cells. The note with it: initial test. Format: cell-based. The method, then:
HCV 377-neo replicon cells were plated in 100-mm plates with ˜25% confluence after 24 hr seeding. Compound 1 was added at the final concentrations of 5, 10 and 20 μM in the presence of G418. Wild type replicon cells in the absence of the compound were used as a control. After 5–6 weeks, both wt replicon cells and selected cells were tested for their sensitivity to Compound 1. In addition, cell lines derived from individual colonies from different concentrations of selective Compound 1 were also isolated, expanded and tested. In the initial test, approximately 60-fold resistance, judged by the FRET assay, was observed between wt replicon cells and selected replicon cells (designated as Compound 1-r replicon cells).

In data set [6] the test system is wild-type HCV 377-neo replicon in Huh-7 cells. Briefly: Colony formation under G418 selection, wild-type replicon RNA.
In data set [7] the test system is HCV replicon (HCV 1b-377-neo replicon cells). The data set is described as follows: HCV replicon cell line and FRET assay. Format: cell-based.
In data set [8] the test system is HCV replicon. The data set is described as follows: Western analysis of NS3 in replicon cells. The format is cell-based. On the procedure: EC50 values were also determined by Western analysis performed according to the instructions for Chemiluminescence Immunology Kit (Cat# NEL105) Amersham, Arlington Heights, Ill. using a Molecular Dynamics Storm 860 phosphoimager and associated software. Experiments were done in duplicate. The primary and secondary antibody dilutions were at 1 to 5,000. Antisera was generated by immunizing rabbits with purified NS3 protease made from an E. Coli expression vector encoding the first 181 amino acids of HCV 1a NS3 with subsequent boosts. Bleeds were tested weekly and boosts continued until a positive signal on a control western was seen. Secondary antibody was a BioRad (#170-6515) Goat anti-Rabbit IgG HRP Conjugate (Cat# 170-6515) BioRad, Hercules, Calif. The protein samples for western analysis were from the same wells used for the FRET assay and were prepared by the addition of an equal volume of 2×SDS-PAGE buffer to the FRET assay mixture, heating and loading on a 10% gel for SDS-PAGE. Interferon alpha (Cat# I-4276) Sigma, St. Louis, Mo. (IFN-α) was obtained and stored as recommended.

The test system of data set [9] is HCV replicon. The data set is described as follows: HCV RNA detection by RT-PCR in replicon cells.
Where [10] appears, read: Hepatitis C virus, HCV replicon cell line, FRET assay, read-out: Replicon Inhibition Range EC50.
[11] abbreviates: HCV replicon cell line, FRET assay, read-out: Replicon Inhibition Range EC50.

Consider `C[C@H](NC(=O)Cc1ccccc1)C(=O)Nc1ccc(C2S/C(=N\c3cccc(F)c3)N(Cc3ccco3)C2=O)cc1` (stereo partly drawn) [Compound 124, (N-{4-[2-(3-fluorophenylimino)-3-furan-2-ylmethyl-4-oxo-thiazolidin-5-yl]phenyl}-2S-(phenylacetylamino))propionamide], for which the half-maximal cytotoxic concentration (CC50) in data set [1] and in data set [4] was over 5 µM throughout. Further, the “replication of the wild-type replicon” value in [2] (0.5 μM Compound 124) is reported as “completely inhibited”. Moreover, the “rlu 48 h” value in [2] (wt clone, 0.5 μM 124, 48 h) worked out at 3237 rlu; in data set [3] (Y > C clone, 0.5 μM 124, 48 h) it was 7186 rlu. For the same compound, the “rlu 72 h” value in [2] (wt clone, 0.5 μM 124, 72 h) turned out to be 3184 rlu; in data set [3] (Y > C clone, 0.5 μM 124, 72 h), 9696 rlu. In [3] (Y2065C replicon, 0.5 μM Compound 124), the decrease in replication is 10–15%.

`C[C@H](NC(=O)OCc1ccccc1)C(=O)Nc1ccc(C2S/C(=N\c3cccc(F)c3)N(Cc3ccco3)C2=O)cc1` (stereo partly drawn) [Compound 1, (1S-(4-[2-(3-Fluorophenylimino)-3-furan-2-ylmethyl-4-oxo-thiazolidin-5-yl]-phenylcarbamoyl)ethyl)carbamic acid benzyl ester]: the 50% cytotoxic concentration (CC50) in [1] and in [4] was over 5 µM throughout. For the same compound, in data set [5], the “resistance between wt replicon cells and selected replicon cells” value is on record as “approximately 60 fold”. This compound returned a Number of colonies in data set [6] (Wild-type RNA transfected, 2 μM Compound 1, 3 weeks G418 selection) of 3. Further, the “reduction in colony number” value in data set [6] (wild-type replicon RNA, 2 μM Compound 1) turned out to be 95%.

As for `O=C(Nc1ccc(C2S/C(=N\c3cccc(F)c3)N(Cc3ccco3)C2=O)cc1)[C@@H]1CCCN1C(=O)Cc1ccccc1` (stereo partly shown) [Compound 127], in data set [7] (setting [10]), the EC50 was under 100 nM.

Take `C[C@H](NC(=O)OCc1ccccc1)C(=O)Nc1ccc(C2S/C(=N\c3ccc(N4CCOCC4)cc3)N(Cc3ccccn3)C2=O)cc1` (stereo partly shown) [Compound 80]: in [7] (setting [11]), the EC50 fell in the range of 100 to 1000 nM.

With `C[C@H](NC(=O)OCc1ccccc1)C(=O)Nc1ccc(C2S/C(=N\c3ccc(C(F)(F)F)cc3)N(Cc3ccco3)C2=O)cc1` (stereo partly shown) [Compound 62], the concentration for a half-maximal effect (EC50) in data set [7] (setting [11]) lay in the range of 1000 to 5000 nM.

Turning to `C[C@H](NC(=O)OCc1ccccc1)C(=O)Nc1ccc(C2S/C(=N\c3ccc(N4CCOCC4)cc3)N(c3ccccn3)C2=O)cc1` (stereo partly shown) [Compound 93], the concentration for a half-maximal effect (EC50) in data set [7] (setting [10]) fell in the range of 100 to 1000 nM.

Turning to `O=C(Nc1ccc(C2S/C(=N\c3cccc(Oc4ccccc4)c3)N(Cc3ccco3)C2=O)cc1)[C@@H]1CCCN1C(=O)OCc1ccccc1` (stereo partly shown) [Compound 34], the concentration giving a half-maximal response (EC50) in data set [7] (setting [10]) lay within 100 to 1000 nM.

As to `O=C(Nc1ccc(C2S/C(=N\c3ccc(N4CCOCC4)cc3)N(Cc3cccnc3)C2=O)cc1)[C@@H]1CCCN1C(=O)OCc1ccccc1` (stereo partly shown) [Compound 81], the EC50 in data set [7] (setting [11]) lay in the range of 100 to 1000 nM; in [7] (Hepatitis C virus, 72 h, FRET assay, read-out: EC50 in monotherapy), 9 to 11 nM.

As for IFN-α, the EC50 in data set [7] (FRET) is reported as 2.9 units of IFN-α per milliliter; in the data set with HCV replicon [8] it was 1.9 units of IFN-α per milliliter; with HCV replicon [9] it was 5.3 units of IFN-α per milliliter.

For `O=C(Nc1ccc(C2S/C(=N\c3ccc(N4CCOCC4)cc3)N(Cc3cccnc3)C2=O)cc1)[C@@H]1CCCN1C(=O)OCc1ccccc1` (stereo partly shown) [Compound 94], in data set [7] (setting [10]), the concentration giving a half-maximal response (EC50) is under 100 nM.

Turning to `CC(C)(C)/N=C1\SC(c2ccc(NC(=O)[C@@H]3CCC(=O)N3C(=O)OCc3ccccc3)cc2)C(=O)N1Cc1ccccn1` (stereo partly shown) [Compound 90], in [7] (setting [10]), the concentration for a half-maximal effect (EC50) lay in the range of 100 to 1000 nM.
